Reference: US20250228915A1, “DISTINCT CD8+ T CELL PROGRAMMING IN THE TUMOR MICROENVIRONMENT CONTRIBUTES TO SEX BIAS IN CANCER” (Ohio State Innovation Foundation, priority 2022, published 2025)

Experiments:
[1] = tested on: human Tcf7 promoter in EGFP-C1-AR overexpressing HEK293FT cells; conditions: AR-transfected HEK293FT, 24 h, 500 ng/mL testosterone or 50 nM DHT; AR dependent (FIG. 7E)
Description: WT or mutated human Tcf7 promoter sequence of one kb upstream from its transcriptional start site was cloned into the pMCS-Red Firefly Luciferase vector (Thermo Fisher). Mutants lacked individual (“Mut 1-4”) or all putative AR binding sites. Briefly, 40,000 HEK293FT cells were grown on a 96 well plate at 80% confluence. […] Renilla luciferase gene expression was used to ensure transfection efficiency (Thermo Fisher). Twenty four hours after transfection, cells were treated with 500 ng/ml testosterone or 50 nM DHT for another 24 hours. Cells were then harvested and luciferase activity was analyzed by using Dual-Luciferase Reporter Assay System (Promega).

[2] = tested on: AR-overexpressing Jurkat cells; conditions: 100 nM, prolonged stimulation over 9 days (FIG. 14B)
Description: Empty vector and androgen receptor-expressing Jurkat cells were seeded into six well plates (Gibco) at 2×10^5 cells per well and treated with 100 nM testosterone (Sigma) or DHT (Millipore), alongside methanol vehicle control (Thermo Fisher). Every three days, cells were counted using the BioRad TC20 automated cell counter, passaged, and re-stimulated with the same androgen concentrations over a time course of 3, 6, and 9 days.

[3] = tested on: MB49 mouse urothelial carcinoma cells; experiment: MB49 tumor growth in WT mice under daily vehicle or enzalutamide; assay type: in vivo; conditions: male WT mice, MB49 subcutaneous; enzalutamide 25 mg/kg daily oral gavage from Day 5 vs vehicle (FIG. 5J)
Description: MB49 (a gift from C. Voelkel-Johnson from the Medical University of South Carolina) and BKL171 mouse urothelial carcinoma cells were cultured in Dulbecco's modified Eagle's medium with 10% heat-inactivated fetal bovine serum and 1% penicillin/streptomycin. 5×10^5 tumor cells were resuspended in 100 μL ice cold PBS for subcutaneous injection into the right flank of a mouse. For antibody-mediated T cell depletion experiments, mice were injected intraperitoneally with 200 μg of anti-mouse CD4 (Clone GK1.5, BioXCell) and/or CD8 neutralizing antibodies (Clone 53-6.7, BioXCell), followed by 100 μg thereafter on the indicated days. For experiments involving enzalutamide, mice were treated daily with either vehicle control or enzalutamide (25 mg/kg) in 1% carboxymethylcellulose with 0.1% Tween 80 and 2.5% DMSO through oral gavage starting on Day 5 post MB49 subcutaneous injection. Tumor surface area (width×length mm^2) was measured using an electronic caliper starting on Day 4 post implantation.

[4] = tested on: CD8+ T cells (Tcf7, Ar transcripts); experiment: qPCR of naïve CD8+ T cells stimulated with testosterone, type I IFN or both; assay type: cell-based, mouse
Description: Mouse spleens and tumors were mechanically disrupted, with the latter additionally subjected to digestion with 1 mg/mL Collagenase D (Roche) for 30 min at 37° C. while shaken at 125 rpm. Excess volume of ice-cold PBS with 2% bovine serum albumin was used to inactivate the enzymatic activity. Red Blood Cell Lysis Buffer (BioLegend) was utilized on tissues before they were passed through 70 µm filters to prepare single cell suspensions. For cytokine production experiments, cells were re-stimulated by 50 ng/mL PMA (Sigma), 1 μg/mL Ionomycin (Sigma) and 1× Brefeldin A (BioLegend) in a 48-well plate for 2 hours at 37° C. For in vitro cultures, purified CD8^+ T cells were left untreated or stimulated with 50 ng/mL testosterone (Sigma) and/or 50 U/mL mouse IFN alpha A (PBL Assay Science). Cells were stained at 4° C. with eFluor506 fixable viability dye for 10 minutes (Invitrogen), followed by extracellular surface markers and FcR block concurrently for 30 minutes. All intracellular staining was performed using the Foxp3 transcription factor staining kit (Invitrogen) according to the manufacturer's instructions. […]
RNA was extracted from FACS/MACS-isolated CD8^+ T cells and reverse-transcribed using RNeasy Micro Kit (Qiagen) and SuperScript™ IV VILO™ Master Mix with ezDNase™ Enzyme (ThermoFisher Scientific), respectively. Quantitative PCR was performed with the following primers: […]

Structure (SMILES)	Tcf7 promoter activity (luciferase) [1]	proliferation [2]	tumor growth [3]	Ar expression (qPCR) ([4]; female CD8+ T cells, testosterone (FIG. 7D))	Tcf7 expression (qPCR) ([4]; male CD8+ T cells, acute testosterone exposure, 6 hours (FIG. 7D))
C[C@]12CCC(=O)C[C@@H]1CC[C@@H]1[C@@H]2CC[C@]2(C)[C@@H](O)CC[C@@H]12 [DHT, dihydrotestosterone]	stimulated	decreased proliferation	–	–	–
CNC(=O)c1ccc(N2C(=S)N(c3ccc(C#N)c(C(F)(F)F)c3)C(=O)C2(C)C)cc1F [enzalutamide]	–	–	partial protection against tumor growth	–	–
C[C@]12CC[C@H]3[C@@H](CCC4=CC(=O)CC[C@@]43C)[C@@H]1CC[C@@H]2O [testosterone]	stimulated	decreased proliferation	–	induction of Ar expression	significantly increased
